In patent US20090062255A1, “TUMOR-TARGETING EVALUATION METHODOLOGY AND COMPOUNDS RELATED THERETO” (THALLION PHARMACEUTICALS INC., priority 2007, published 2009):

Legend:
SRBC = test: Hemolysis of SRBC; format: cell-based; settings: concentration necessary to achieve 50% hemolysis of SRBC
[1] = test system: PC-3 (prostate adenocarcinoma); test: In vitro cytotoxic activity (GI50, propidium iodide), PC-3; format: cell-based, human; settings: method (2)
Procedure: (§1) Procedures used for each series of tests are described below.
(§2) Compounds were dissolved at 10 mM in DMSO. […] The following day, propidium iodide was added to one of the two plates and fluorescence measured (Tz). […] Each compound was tested at each concentration and in triplicates. The equivalent cell number was determined after adding propidium iodide by measuring the signal by fluorescence (C for control).

[2] = test system: HT-29 (colorectal carcinoma); test: In vitro cytotoxic activity (GI50, propidium iodide), HT-29; format: cell-based; settings: method (2), 96 hrs
Procedure: as §1, §2

SF268 (CNS) = test: In vitro cytotoxic activity (GI50, propidium iodide), SF-268; format: cell-based; settings: method (2), 96 hrs
Procedure: as §1, §2

[3] = test system: MDA-MB-231 (mammary gland adenocarcinoma); test: In vitro cytotoxic activity (GI50, propidium iodide), MDA-MB-231; format: cell-based, human; settings: method (2), 96 hrs
Procedure: as §1, §2

[4] = biological target: T1, peripheral benzodiazepine receptor (PBR) (Rattus norvegicus, UniProt P16257); test: In-house PBR binding assay ([3H]PK11195, rat heart mitochondrial membranes); settings: in-house radioligand-binding assay
T1 construct: CBR and PBR were obtained from rat brain and heart membrane-fractions, respectively; from tissue; host or cells: Wistar rat heart membranes

[5] = test system: prenylation of Ras, RAP1A and HDJ2 (FTase, GGTase I); test: Protein prenylation immunoblot (FTase and GGTase I activities) in MCF-7 cells; format: cell-based, human; settings: MCF7 cells, 3, 10 and 30 μM, 24 h
Procedure: It was first verified if ECO-4601 interferes with Ras processing by monitoring FTase and GGTase I activities by immunoblot analysis. For these experiments, exponentially growing MCF-7 (human breast tumor) cells were seeded in 60 mm cell culture dishes at a density of 2.5×10^6 cells per dish. After an 18 h incubation period, ECO-4601 or lovastatin (Sigma-Aldrich, St. Louis, Mo.) were added at a final concentration of 3, 10 and 30 μM for 24 h. Cells were also treated with the vehicle alone (0.05% DMSO) for the same incubation periods. Treated and control cells were lysed in ice-cold RIPA buffer (50 mM Tris-HCl pH 7.4, 1% Triton X-100, 1% deoxycholate, 0.1% SDS, 150 mM NaCl, and 1 mM EDTA) containing protease inhibitors (Roche, Mannheim, Germany) and phosphatase inhibitors (EMD Biosciences, Calbiochem, San Diego, Calif.) for 20 minutes on ice. After lysis, cell debris was removed by centrifugation at 12000×g for 10 min. […] Bound antibodies were detected using horseradish peroxidase-conjugated secondary antibodies (Jackson ImmunoResearch Laboratories Inc., West Grove, Pa.) for 1 h at room temperature in 0.5% skim milk-TBS, visualized by treating the membranes with enhanced chemiluminescence reagents (Millipore, Mississauga, ON, Canada) and exposing them to BioMax Light Films (Kodak, Mississauga, ON, Canada). […]

SMILES | Hemolysis (ED50 μg/mL) (SRBC) [µg/mL] | also measured
CCN1c2c(O)cccc2C(=O)N(C/C=C(\C)CC/C=C(\C)CCC=C(C)C)c2cc(O)cc(O)c21 [Compound 14, 10-farnesyl-4,6,8-trihydroxy-5-ethyl-5,10-dihydro-dibenzo[b,e][1,4]diazepin-11-one] | 43.9 | 
CC(C)=CCCC1(C)OC1CC/C(C)=C/CN1C(=O)c2cccc(O)c2Nc2c(O)cc(O)cc21 (stereo not shown) [Compound 17, 10-(3,7,11-trimethyl-6,7-epoxydodeca-2,10-dienyl)-4,6,8-trihydroxy-5,10-dihydro-dibenzo[b,e][1,4]diazepin-11-one] | 35.0 | 
C/C(=C\CN1C(=O)c2cccc(O)c2Nc2c(O)cc(O)cc21)CC/C=C(\C)CCC1OC1(C)C (stereo not shown) [Compound 18] | >64 | GI50 ([1]; Homo sapiens, 96 h): > 30 µM
CCCN1c2c(O)cccc2C(=O)N(C/C=C(\C)CC/C=C(\C)CCC=C(C)C)c2cc(O)cc(O)c21 [Compound 63, 10-farnesyl-4,6,8-trihydroxy-5-n-propyl-5,10-dihydro-dibenzo[b,e][1,4]diazepin-11-one] | >64 | 
CCCCN1c2c(O)cccc2C(=O)N(C/C=C(\C)CC/C=C(\C)CCC=C(C)C)c2cc(O)cc(O)c21 [Compound 64, 10-farnesyl-4,6,8-trihydroxy-5-n-butyl-5,10-dihydro-dibenzo[b,e][1,4]diazepin-11-one] | >64 | 
CCCCCCN1c2c(O)cccc2C(=O)N(C/C=C(\C)CC/C=C(\C)CCC=C(C)C)c2cc(O)cc(O)c21 [Compound 67, 10-farnesyl-4,6,8-trihydroxy-5-n-hexyl-5,10-dihydro-dibenzo[b,e][1,4]diazepin-11-one] | >64 | 
CCC(C)N1c2c(O)cccc2C(=O)N(C/C=C(\C)CC/C=C(\C)CCC=C(C)C)c2cc(O)cc(O)c21 (stereo not shown) [Compound 77, 10-Farnesyl-4,6,8-trihydroxy-5-sec-butyl-5,10-dihydro-dibenzo[b,e][1,4]diazepin-11-one] | 60.9 | 
CC(C)CCCC(C)CCCC(C)CCN1C(=O)c2cccc(O)c2N(C)c2c(O)cc(O)cc21 (stereo not shown) [Compound 78, 10-(3,7,11-trimethyldodecyl)-4,6,8-trihydroxy-5-methyl-5,10-dihydro-dibenzo[b,e][1,4]diazepin-11-one] | 9.89 | 
COC(C)(CCC=C(C)C)CCC/C(C)=C/CN1C(=O)c2cccc(O)c2N(C)c2c(O)cc(O)cc21 (stereo not shown) [Compound 80, 10-(7-methoxy-3,7,11-trimethyldodeca-2,10-dienyl)-4,6,8-trihydroxy-5-methyl-5,10-dihydro-dibenzo[b,e][1,4]diazepin-11-one] | >64 | 
COC(C)(C)CCCC(C)=CCCC(C)=CCN1C(=O)c2cccc(O)c2Nc2c(O)cc(O)cc21 [Compound 82, 10-(11-methoxy-3,7,11-trimethyl-2,6-dodecadienyl)-4,6,8-trihydroxy-5,10-dihydro-dibenzo[b,e][1,4]diazepin-11-one] | >64 | 
COC(C)(CCC=C(C)C)CCC/C(C)=C/CN1C(=O)c2cccc(O)c2Nc2c(O)cc(O)cc21 (stereo not shown) [Compound 83] | 12.4 | GI50 [2]: 19.6 µM; GI50 (SF268 (CNS)): 9.74 µM; GI50 ([1]; 96 hrs): 13.2 µM; GI50 [3]: 6.71 µM
COC(C)(C)CCCC(C)(CCCC(C)=CCN1C(=O)c2cccc(O)c2Nc2c(O)cc(O)cc21)OC (stereo not shown) [Compound 84, 10-(7,11-dimethoxy-3,7,11-trimethyl-2-dodecenyl)-4,6,8-trihydroxy-5,10-dihydro-dibenzo[b,e][1,4]diazepin-11-one] | >32 | 
CCN1c2c(O)cccc2C(=O)N(CC=C(C)CCC=C(C)CCCC(C)(C)OC)c2cc(O)cc(O)c21 [Compound 85, 10-(11-methoxy-3,7,11-trimethyl-2,6-dodecadienyl)-4,6,8-trihydroxy-5-ethyl-5,10-dihydro-dibenzo[b,e][1,4]diazepin-11-one] | >64 | 
CCN1c2c(O)cccc2C(=O)N(CC=C(C)CCCC(C)(CCCC(C)(C)OC)OC)c2cc(O)cc(O)c21 (stereo not shown) [Compound 87, 10-(7,11-dimethoxy-3,7,11-trimethyl-2-dodecenyl)-4,6,8-trihydroxy-5-ethyl-5,10-dihydro-dibenzo[b,e][1,4]diazepin-11-one] | >64 | 
CC(C)=CCCC(C)(O)CCCC(C)=CCN1C(=O)c2cccc(O)c2Nc2c(O)cc(O)cc21 (stereo not shown) [Compound 89, 10-(7-hydroxy-3,7,11-trimethyldodeca-2,10-dienyl)-4,6,8-trihydroxy-5,10-dihydro-dibenzo[b,e][1,4]diazepin-11-one] | >64 | 
CC(=O)NC(C)(CCC=C(C)C)CCCC(C)=CCN1C(=O)c2cccc(O)c2Nc2c(O)cc(O)cc21 (stereo not shown) [Compound 92, 10-(7-acetamido-3,7,11-trimethyldodeca-2,10-dienyl)-4,6,8-trihydroxy-5,10-dihydro-dibenzo[b,e][1,4]diazepin-11-one] | >64 | 
CC(C)=CCC/C(C)=C/CC/C(C)=C/CN1C(=O)c2cccc(O)c2Nc2c1cc(O)c(Br)c2O [Compound 97, 10-(farnesyl)-7-bromo-4,6,8-trihydroxy-5,10-dihydro-dibenzo[b,e][1,4]diazepin-11-one] | 15.1 | 
[2H]C([2H])([2H])N1c2c(O)cccc2C(=O)N(C/C=C(\C)CC/C=C(\C)CCC=C(C)C)c2cc(O)cc(O)c21 [Compound 98, 10-Farnesyl-4,6,8-trihydroxy-5-(trideuteriomethyl)-5,10-dihydro-dibenzo[b,e][1,4]diazepin-11-one] | 4.5 | 
CC(C)=CCC/C(C)=C/CC/C(C)=C/CN1C(=O)c2cccc(O)c2N(C)c2c1cc(O)c(Br)c2O [Compound 99] |  | IC50 [4]: 0.01 µM
CC[C@H](C)C(=O)O[C@H]1C[C@@H](C)C=C2C=C[C@H](C)[C@H](CC[C@@H]3C[C@@H](O)CC(=O)O3)[C@H]21 [lovostatin, lovastatin, reference compound] |  | effect on protein prenylation (mobility shift of Ras, RAP1A and HDJ2) [5]: expected mobility shift
